From publication PMC9104013, “Role of Polyamine-Induced Dimerization of Antizyme in Its Cellular Functions” (International Journal of Molecular Sciences, 2022)

Tests used:
mouse OAZ1 (mOAZ1) = target: T1, mouse OAZ1 (mOAZ1) (Mus musculus, UniProt P54369); experiment: Isothermal titration calorimetry of polyamines binding to mOAZ1; details: for ΔH (enthalpy variation) / Ka (affinity constant): pH 7.5; for ΔH (enthalpy variation): SD did not exceed ±20%; for Ka (affinity constant): SD did not exceed ±25%; for Binding to mOAZ1: under the conditions used; for Kd: read-out: Kd (dissociation constant); for TΔS (entropy variation): calculated from TΔS = ΔH + RTlnKa
T1 construct: Full-length mOAZ1 protein was successfully produced in E. coli; made in house; host or cells: Escherichia coli Rosetta (DE3)
Protocol: For the precise isothermal titration calorimetry (ITC) experiments only freshly purified samples turned out to be suitable. The thermodynamic parameters of polyamines binding to OAZ1 were measured using a MicroCal iTC200 instrument (GE Healthcare, Chicago, IL, USA) as described elsewhere. Experiments were carried out at 31 °C in buffer containing 25 mM potassium phosphate, pH 7.5; 150 mM KCl; 25% (v/v) glycerol; 1 mM 2-mercaptoethanol; and 1 mM PMSF. Aliquots (2.5 μL) of ligands were injected into a 0.2 mL cell containing the protein solution to achieve a complete binding isotherm. Protein and ligand concentrations were 20 μM and 200 μM, respectively. The heat of dilution was measured by injection of the ligand into the buffer solution or by additional injections of ligand after saturation; the values obtained were subtracted from the heat of reaction to obtain the effective heat of binding. The resulting titration curves were fitted using the MicroCal Origin software, assuming one set of binding sites. Affinity constants (Ka) and enthalpy variations (ΔH) were determined, and the entropy variations (ΔS) were calculated from the equation: TΔS = ΔH + RTlnKa.

OAZ1 protein = test system: OAZ1 protein; design: method as in PMID 11972449; details: HTC cells; cited from earlier work
[1] = target: T2, recombinant mOAZ1 protein (Mus musculus, UniProt P54369); experiment: Electrophoresis of mOAZ1-Polyamine complex (0.01% SDS in running buffer); format: binding; details: 200 μM polyamine, 30 min, 20 °C, pH 7.5
T2 construct: Full-length mOAZ1 protein was successfully produced in E. coli; made in house; host or cells: Escherichia coli Rosetta (DE3)
Protocol: The recombinant mOAZ1 protein (1 μg/band) was incubated with 200 μM of a polyamine at room temperature for 30 min. Then the sample was quenched with a loading buffer (200 mM Tris-HCl, pH 6.8, 0.01% bromophenol blue, and 40% glycerol) and applied onto 12% polyacrylamide gel lacking SDS. Electrophoresis was carried out in a running buffer with decreased SDS concentration (25 mM Tris base; 250 mM glycine; and 0.01% SDS) at 70 V. The gel was stained with Coomassie R-250.

[2] = calculated as 1/Ka, no binding = not detected, Kd > 50 μM not detectable

T1 sequence (P54369 whole entry): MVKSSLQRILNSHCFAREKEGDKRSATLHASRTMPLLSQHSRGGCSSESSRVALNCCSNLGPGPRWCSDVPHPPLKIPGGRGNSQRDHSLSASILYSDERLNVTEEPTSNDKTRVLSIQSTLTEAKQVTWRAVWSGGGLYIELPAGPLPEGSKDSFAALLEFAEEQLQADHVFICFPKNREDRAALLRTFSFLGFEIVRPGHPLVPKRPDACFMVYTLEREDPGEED
T2 sequence (P54369 whole entry): as above

ΔH (enthalpy variation) (mouse OAZ1 (mOAZ1); ITC, 31 °C) | Ka (affinity constant) (mouse OAZ1 (mOAZ1); ITC, 31 °C) | Binding to mOAZ1 (mouse OAZ1 (mOAZ1); ITC) | Kd (mouse OAZ1 (mOAZ1); [2]) | TΔS (entropy variation) (mouse OAZ1 (mOAZ1)) | Stoichiometry mOAZ1/Polyamine (mouse OAZ1 (mOAZ1); ITC, 31 °C, pH 7.5, 150 mM KCl, 25% glycerol, protein 20 μM, ligand 200 μM) | Kd (dissociation constant) (mouse OAZ1 (mOAZ1); [2]) | Formation of (mOAZ1)2-Polyamine complex / dimerization [1] | Compound | Half-life of OAZ1 protein (OAZ1 protein)
-21.3 kJ/mol | 750000 M⁻¹ | bound to mOAZ1 | 1.3 µM | 12.6 kJ/mol |  |  |  | CCNCCCNCCCNCCCNCC [DENSpm, N^1,N^11-diethylnorspermine] | 
No binding ^f | No binding ^f | did not |  | No binding ^f | No binding ^f | No binding ^f |  | NCCCCN [Put, putrescine] | 
 |  |  |  |  |  |  |  | CCNCCCCNCCCCNCCCCNCCCCNC/C=C/CNCCCCNCCCCNCCCCNCCCCNCC [SL-11144] | did not increase the half-life of OAZ1 protein
-15.5 kJ/mol | 920000 M⁻¹ | bound to mOAZ1 | 1.1 µM | 18.8 kJ/mol |  |  | induce dimerization of OAZ1 | NCCCNCCCCNCCCN [Spm, spermine] | did not increase the half-life of OAZ1 protein
